Each structure is given as a SMILES string.

As usually defined, the CLint scaled is a measure of how fast metabolising enzymes remove a compound, apart from limits set by blood flow. Higher therefore signals rapid turnover. What is called half-life is how long it takes for the measured level to halve. A high value points to slow loss.

Series [1] is described as follows: pH stability of quenched linker-payloads in buffers (LCMS). Format: physicochemical. Here is the method: To a solution of compound (payloads or quenched-linker-payloads) in DMSO (0.2-1.0 mg/mL) was added corresponding PBS buffer (V(buffer)/V(DMSO)=5) to give test samples (pH 3, 4, 5, 6, 7.4, and 8.5, or other special pH). The test samples were incubated at RT for at least 3 days and monitored by LCMS (i.e., at 1 hr, 2 hr, 4 hr, 8 hr, and 1 day, 2 day, 3 day, 4 day, 5 day, 6 day, 7 day, 8 day, 9 day, and 21 day time points). Initial concentrations of the samples were 0.2 mg/mL (DMSO/buffer, v/v=1/5). […] The payloads and quenched linker-payloads were mostly stable at pH >5.0, 6.0, 7.4 and 8.5 after 3 days. In more acidic conditions, such as pH 1.0, the payloads or linker-payloads were easily cleaved to release D*-OH.

A short description of series [2]: Metabolic stability with human liver microsomes. In kind it is in vitro ADME. To be noted: for Area ratio of III formed from PIII-1 / Percent Remaining (%): Mean. The method, then: The metabolic stability of payload PIII-1 incubated with human liver microsomes was evaluated and the results were shown in the Table 7e below.
A general note: Microsomes from liver hold many membrane-bound enzymes, among them those of drug oxidation.

Where [3] appears, read: buffer, 1 day, 0.2 mg/mL, pH 7.4.
The mark [4] stands for this setting: buffer, 2 day, 0.2 mg/mL, pH 7.4.
Setting [5] is: buffer, 7 day, 0.2 mg/mL, pH 7.4.

With `CCCC1OC2CC3C4CCC5=CC(=O)C=CC5(C)C4C(O)CC3(C)C2(C(=O)COCN2CCCC(NC(=O)OCc3ccc(NC(=O)C(CCCNC(N)=O)NC(=O)C(NC(=O)CCOCCOCCOCCOCCNC(=O)CCC(=O)N4Cc5ccccc5-c5c(nnn5CCOCCOCCOCCOCCC(=O)NCCS(=O)(=O)O)-c5ccccc54)C(C)C)cc3)C2=O)O1` (mixture of isomers) [Q1L1-PII-12], the “LP: percentage of linker-payloads remaining” value turned out to be 100% in series [1] (pH 4.0, day 1); 100% in series [1] (pH 4.0, day 2); 100% in series [1] (pH 4.0, day 7); 100% in series [1] (pH 5.0, day 1); 100% in series [1] (pH 5.0, day 2); 100% in series [1] (pH 5.0, day 7). Further, the “LP: percentage of linker-payloads remaining” value came out at 100% in series [1] (pH 7.4, day 1); 100% in series [1] (pH 7.4, day 2); 100% in series [1] (pH 7.4, day 7). Further, the “P: percentage of budesonide released from the linker-payloads” value (from here on “P: percentage of budesonide released”) is 0% in series [1] (pH 4.0, day 1); 0% in series [1] (pH 4.0, day 2); 0% in series [1] (pH 4.0, day 7); 0% in series [1] (pH 5.0, day 1); 0% in series [1] (pH 5.0, day 2); 0% in series [1] (pH 5.0, day 7). The “P: percentage of budesonide released” value in series [1] (pH 7.4, day 1) came to 0%; in series [1] (pH 7.4, day 2) it was 0%; in series [1] (pH 7.4, day 7), 0%.

For the molecule `CCCC1OC2CC3C4CCC5=CC(=O)C=CC5(C)C4C(O)CC3(C)C2(C(=O)COC2CCN2C(=O)CNC(=O)CCOCCOCCOCCOCCNC(=O)CCC(=O)N2Cc3ccccc3-c3c(nnn3CCOCCOCCOCCOCCC(=O)NCCS(=O)(=O)O)-c3ccccc32)O1` (mixture of isomers) [Q1L6-PII-13], the “LP: percentage of linker-payloads remaining” value in series [1] (pH 4.0, day 1) is 100%; in series [1] (pH 4.0, day 2), 100%; in series [1] (pH 4.0, day 7) it was 100%; in series [1] (pH 5.0, day 1) it was 100%; in series [1] (pH 5.0, day 2), 100%; in series [1] (pH 5.0, day 7) it was 100%. For the same molecule, the “LP: percentage of linker-payloads remaining” value in series [1] (pH 6.0, day 1) was determined as 100%; in series [1] (pH 6.0, day 2) it was 100%; in series [1] (pH 6.0, day 7), 100%; in series [1] (pH 7.4, day 1), 100%; in series [1] (pH 7.4, day 2), 100%; in series [1] (pH 7.4, day 7), 100%. The “P: percentage of budesonide released” value in series [1] (pH 4.0, day 1) worked out at 0%; in series [1] (pH 4.0, day 2), 0%; in series [1] (pH 4.0, day 7) it was 0%; in series [1] (pH 5.0, day 1) it was 0%; in series [1] (pH 5.0, day 2), 0%; in series [1] (pH 5.0, day 7), 0%. Also, the “P: percentage of budesonide released” value was found to be 0% in series [1] (pH 6.0, day 1); 0% in series [1] (pH 6.0, day 2); 0% in series [1] (pH 6.0, day 7); 0% in series [1] (pH 7.4, day 1); 0% in series [1] (pH 7.4, day 2); 0% in series [1] (pH 7.4, day 7).

Take `CCCC1O[C@@H]2C[C@H]3[C@@H]4C[C@H](F)C5=CC(=O)C=C[C@]5(C)[C@@]4(F)[C@@H](O)C[C@]3(C)[C@]2(C(=O)CO)O1` (stereo partly drawn) [III from P11I-1]: the “Area ratio of III formed from PIII-1” value is “BQL” in series [2] (0 min); 0.001 in series [2] (5 min); 0.002 in series [2] (15 min); 0.001 in series [2] (30 min); 0.001 in series [2] (45 min).

As for `CCCC1O[C@@H]2C[C@H]3[C@@H]4CCC5=CC(=O)C=C[C@]5(C)[C@H]4[C@@H](O)C[C@]3(C)[C@]2(C(=O)COCNC(=O)CNC(=O)OCc2ccc(O[C@@H]3O[C@H](CO)[C@@H](O)[C@H](O)[C@H]3O)c(C(=O)NCCNC(=O)COC3C#CCCCCC3)c2)O1` (stereo partly drawn) [L18-PII-1, COT-EDA-(GLC)PAB-G-NHCH2-Bud], the “LP: percentage of linker-payloads remaining” value in series [1] (buffer, 1 day, 0.2 mg/mL, pH 4) was found to be 100%; in series [1] (buffer, 1 day, 0.2 mg/mL, pH 5) it was 100%; in series [1] (buffer, 1 day, 0.2 mg/mL, pH 6), 100%; in series [1] (setting [3]) it was 100%; in series [1] (buffer, 2 day, 0.2 mg/mL, pH 4) it was 100%; in series [1] (buffer, 2 day, 0.2 mg/mL, pH 5), 100%. For the same molecule, the “LP: percentage of linker-payloads remaining” value in series [1] (buffer, 2 day, 0.2 mg/mL, pH 6) amounted to 100%; in series [1] (setting [4]), 100%; in series [1] (buffer, 7 day, 0.2 mg/mL, pH 4) it was 100%; in series [1] (buffer, 7 day, 0.2 mg/mL, pH 5), 100%; in series [1] (buffer, 7 day, 0.2 mg/mL, pH 6) it was 100%; in series [1] (setting [5]), 100%. The “P: percentage of budesonide released” value in series [1] (pH 4.0, day 1) is 0%; in series [1] (pH 4.0, day 2), 0%; in series [1] (pH 4.0, day 7), 0%; in series [1] (pH 5.0, day 1), 0%; in series [1] (pH 5.0, day 2) it was 0%; in series [1] (pH 5.0, day 7), 0%. The “P: percentage of budesonide released” value in series [1] (pH 6.0, day 1) amounted to 0%; in series [1] (pH 6.0, day 2) it was 0%; in series [1] (pH 6.0, day 7) it was 0%; in series [1] (pH 7.4, day 1) it was 0%; in series [1] (pH 7.4, day 2) it was 0%; in series [1] (pH 7.4, day 7) it was 0%.

In the case of `CCCC1O[C@@H]2C[C@H]3[C@@H]4CCC5=CC(=O)C=C[C@]5(C)[C@H]4[C@@H](O)C[C@]3(C)[C@]2(C(=O)COC2CCCN2C(=O)CNC(=O)CCOCCOCCOCCOCCNC(=O)CCC(=O)N2Cc3ccccc3-c3c(nnn3CCOCCOCCOCCOCCC(=O)NCCS(=O)(=O)O)-c3ccccc32)O1` (stereo partly drawn) [Q1L6-PII-9], the “LP: percentage of linker-payloads remaining” value came out at 30% in series [1] (buffer, 1 day, 0.2 mg/mL, pH 4); 100% in series [1] (buffer, 1 day, 0.2 mg/mL, pH 6); 100% in series [1] (setting [3]); 10% in series [1] (buffer, 2 day, 0.2 mg/mL, pH 4); 100% in series [1] (buffer, 2 day, 0.2 mg/mL, pH 6); 100% in series [1] (setting [4]). Moreover, the “LP: percentage of linker-payloads remaining” value in series [1] (buffer, 7 day, 0.2 mg/mL, pH 4) is reported as 0%; in series [1] (buffer, 7 day, 0.2 mg/mL, pH 6) it was 92%; in series [1] (setting [5]) it was 100%. Also, the “P: percentage of budesonide released” value stood at 69% in series [1] (pH 4.0, day 1); 89% in series [1] (pH 4.0, day 2); 99% in series [1] (pH 4.0, day 7); 5% in series [1] (pH 5.0, day 1); 10% in series [1] (pH 5.0, day 2); 28% in series [1] (pH 5.0, day 7). Also, the “P: percentage of budesonide released” value in series [1] (pH 6.0, day 1) was determined as 0%; in series [1] (pH 6.0, day 2) it was 0%; in series [1] (pH 6.0, day 7), 8%; in series [1] (pH 7.4, day 1) it was 0%; in series [1] (pH 7.4, day 2), 0%; in series [1] (pH 7.4, day 7), 0%.

For `O=C(c1ccc(F)cc1)C1CCN(CCn2c(=O)[nH]c3ccccc3c2=O)CC1` [ketanserin], the “Percent Remaining (%)” value in series [2] (0 min) is 100.00%; in series [2] (5 min) it was 81.45%; in series [2] (15 min) it was 67.51%; in series [2] (30 min), 41.90%; in series [2] (45 min), 36.47%. The same molecule gave a CLint scaled in series [2] (human) of 55.2 mL/min/kg. The half-life in series [2] (human) came out at 31.5 min.

The values above are taken from patent US20230119539A1, “TRACELESS LINKERS AND PROTEIN-CONJUGATES THEREOF” (Regeneron Pharmaceuticals, Inc., priority 2019, published 2023).
